# In patent US8269043B2, “Bicyclic aryl sphingosine 1-phosphate analogs” (Biogen Idec MA Inc., priority 2008, dated 2012):
# Tested on: circulating lymphocytes
# Experiment: Lymphopenia assay: circulating lymphocytes after oral gavage
# Assay type: in vivo
# Conditions: C57bl/6 male mice, oral gavage 0.5 and 5 mg/kg in 30% HPCD, blood 5 and 24 hours after administration
# Protocol: Measurement of circulating lymphocytes: Compounds were dissolved in 30% HPCD. Mice (C57bl/6 male, 6-10 week-old) were administered 0.5 and 5 mg/kg of a compound via oral gavage. 30% HPCD was included as a negative control.
# Blood was collected from the retro-orbital sinus 5 and 24 hours after drug administration under short isoflurane anesthesia. Whole blood samples were subjected to hematology analysis. Peripheral lymphocyte counts were determined using an automated analyzer (HEMAVET™ 3700). Three mice were used to assess the lymphocyte depletion activity of each compound screened.
# Compounds of formula (I) induced full lymphopenia at times as short as 3 hours or less to as long as 48 hours or more; for example, 4 to 36 hours, or 5 to 24 hours. In some cases, a compound of formula induced full lymphopenia at 5 hours and partial lymphopenia at 24 hours. The dosage required to induce lymphopenia can be in the range of, e.g., 0.001 mg/kg to 100 mg/kg; or 0.01 mg/kg to 10 mg/kg. The dosage can be 10 mg/kg or less, such as 5 mg/kg or less, 1 mg/kg or less, or 0.1 mg/kg or less
row,Compound,Lymphopenia (ED50 mg/kg)
1,NC(CO)(CO)c1ccc2c(C(F)(F)F)c(O[C@H]3C[C@@H](COCc4ccccc4)C3)ccc2c1 [Example 74],<0.5 mg/kg
2,(R)-2-amino-2-(6-(3-(benzyloxy)phenylthio)naphthalen-2-yl)propan-1-ol [Example 155],<0.5 mg/kg
3,(R)-2-Amino-2-[6-(cis-4-pentyl-cyclohexyloxy)-naphthalen-2-yl]-propan-1-ol and (R)-2-Amino-2-[6-(trans-4-pentyl-cyclohexyloxy)-naphthalen-2-yl]-propan-1-ol [Example 272],<0.5 mg/kg
4,Cl.NC(CO)(CO)c1ccc2cc(O[C@H]3C[C@H](COCc4ccccc4)C3)ccc2c1 [Example 65],<0.5 mg/kg

# Same assay, conditions: Mus musculus, Lymphocyte, po, C57bl/6 male mice, oral gavage 0.5 and 5 mg/kg in 30% HPCD, blood 5 and 24 hours after administration
row,Compound,ED50
1,"CC(C)(C)[C@H]1CC[C@H](Oc2ccc3cc([C@@](C)(N)CO)ccc3c2-c2ccccc2)CC1 [Example 229, (R)-2-amino-2-(6-(trans-4-tert-butylcyclohexyloxy)-5-phenylnaphthalen-2-yl)propan-1-ol]",> 5 mg/kg
2,"CC(F)(F)[C@H]1CC[C@@H](Oc2ccc3cc([C@@](C)(N)CO)ccc3c2)CC1 [Example 319, (R)-2-amino-2-(6-(cis-4-(1,1-difluoroethyl)cyclohexyloxy)naphthalen-2-yl)propan-1-ol]",> 5 mg/kg
3,"C[C@](N)(CO)c1ccc2c(C(F)(F)F)c(OC3CCC4(CCCCC4)CC3)ccc2c1 [Example 139, (2R)-2-amino-2-(6-(spiro[5.5]undecan-3-yloxy)-5-(trifluoromethyl)naphthalen-2-yl)propan-1-ol]",< 0.5 mg/kg
4,"Cc1ccc(Oc2ccc3cc([C@@](C)(N)CO)ccc3c2)cc1 [Example 180, (R)-2-Amino-2-(6-(p-tolyloxy)naphthalen-2-yl)propan-1-ol]",0.5 to 5 mg/kg
5,"CC(CO)c1ccc2c(C(F)(F)F)c(O[C@H]3CC[C@H](C(C)(C)C)CC3)ccc2c1 (relative stereo) [Example 275, 2-[6-(trans-4-tert-Butyl-cyclohexyloxy)-5-trifluoromethyl-naphthalen-2-yl]-propan-1-ol]",> 5 mg/kg
6,"CC(C)(C)[C@H]1CC[C@H](Oc2ccc3cc([C@@](C)(N)CO)ccc3c2C2CC2)CC1 [Example 215, (R)-2-amino-2-(6-(trans-4-tert-butylcyclohexyloxy)-5-cyclopropylnaphthalen-2-yl)propan-1-ol]",< 0.5 mg/kg
7,"C[C@](N)(CO)c1ccc2cc(Oc3cccc(OC(F)(F)F)c3)ccc2c1 [Example 175, (R)-2-Amino-2-(6-(3-(trifluoromethoxy)phenoxy)naphthalen-2-yl)propan-1-ol]",0.5 to 5 mg/kg
8,"CC(C)C1CCC(Oc2ccc3cc([C@@](C)(N)CO)ccc3c2)CC1 (stereo partly drawn) [Example 91, (R)-2-Amino-2-[6-(4-isopropyl-cyclohexyloxy)-naphthalen-2-yl]-propan-1-ol]",0.5 to 5 mg/kg
9,"CCc1ccccc1Oc1ccc2cc([C@@](C)(N)CO)ccc2c1 [Example 182, (R)-2-Amino-2-(6-(2-ethylphenoxy)naphthalen-2-yl)propan-1-ol]",0.5 to 5 mg/kg
10,"CCCCCOc1cccc(Oc2ccc3cc(C(N)(CO)CO)ccc3c2)c1 [Example 196, 2-Amino-2-(6-(3-(pentyloxy)phenoxy)naphthalen-2-yl)propane-1,3-diol]",< 0.5 mg/kg
11,"C[C@](N)(CO)c1ccc2cc(OC3CCC(C4CCCC4)CC3)ccc2c1 (stereo partly drawn) [Example 94, (R)-2-Amino-2-[6-(4-cyclopentyl-cyclohexyloxy)-naphthalen-2-yl]-propan-1-ol]",0.5 to 5 mg/kg
12,"CCCC[C@H]1CC[C@@H](Oc2ccc3cc([C@@](C)(N)CO)ccc3c2C(F)(F)F)CC1 [Example 17, (R)-2-amino-2-(6-(cis-4-butylcyclohexyloxy)-5-(trifluoromethyl)naphthalen-2-yl)propan-1-ol]",0.07 mg/kg
13,"CC(C)(C)[C@H]1CC[C@H](Oc2ccc3cc([C@@](C)(N)CO)ccc3c2-c2cncnc2)CC1 [Example 225, (R)-2-amino-2-(6-(trans-4-tert-butylcyclohexyloxy)-5-(pyrimidin-5-yl)naphthalen-2-yl)propan-1-ol]",> 5 mg/kg
14,"C[C@@]1(c2ccc3c(C(F)(F)F)c(O)ccc3c2)COC(=O)N1 [Example 130, (R)-4-(6-hydroxy-5-(trifluoromethyl)naphthalen-2-yl)-4-methyloxazolidin-2-one]",> 5 mg/kg
15,"C[C@](N)(CO)c1ccc2cc(OC3CCC4CCCCC4C3)ccc2c1 (stereo partly drawn) [Example 87, (R)-2-Amino-2-[6-(decahydro-naphthalen-2-yloxy)-naphthalen-2-yl]-propan-1-ol]",0.5 to 5 mg/kg
16,"CC(C)(C)[C@H]1CC[C@H](Oc2ccc3cc([C@]4(C)COC(=O)N4)ccc3c2)CC1 [Example 238, (R)-4-(6-(trans-4-tert-butylcyclohexyloxy)naphthalen-2-yl)-4-methyloxazolidin-2-one]",< 0.5 mg/kg
17,"Cc1ccc(Oc2ccc3cc([C@@](C)(N)CO)ccc3c2)cc1C [Example 184, (R)-2-Amino-2-(6-(3,4-dimethylphenoxy)naphthalen-2-yl)propan-1-ol]",> 5 mg/kg

row,Compound,ED50
1,"CC(C)(C)[C@H]1CC[C@H](Oc2ccc3cc(C4(N)COC4)ccc3c2)CC1 [Example 151, 3-(6-(trans-4-tert-Butylcyclohexyloxy)naphthalen-2-yl)oxetan-3-amine]",0.5 to 5 mg/kg
2,"C[C@](N)(CO)c1ccc2cc(O[C@H]3CC[C@@H](C(F)(F)F)CC3)ccc2c1 [Example 259, (R)-2-Amino-2-[6-(cis-4-trifluoromethyl-cyclohexyloxy)-naphthalen-2-yl]-propan-1-ol]",0.5 to 5 mg/kg
3,"CC(C)(C)[C@H]1CC[C@H](Oc2c(Cl)c(Cl)c3cc([C@@](C)(N)CO)ccc3c2Cl)CC1 [Example 240, (R)-2-amino-2-(6-(trans-4-tert-butylcyclohexyloxy)-5,7,8-trichloronaphthalen-2-yl)propan-1-ol]",> 5 mg/kg
4,"CC(C)(C)[C@H]1CC[C@H](Oc2ccc3cc([C@@](C)(N)CO)ccc3c2Cl)CC1 [Example 236, (R)-2-amino-2-(6-(trans-4-tert-butylcyclohexyloxy)-5-chloronaphthalen-2-yl)propan-1-ol]",< 0.5 mg/kg
5,"C[C@](N)(CO)c1ccc2c(C(F)(F)F)c(O[C@H]3CC[C@H](C4CCCCC4)CC3)ccc2c1 [Example 163, (R)-2-Amino-2-(6-(trans-4-cyclohexylcyclohexyloxy)-5-(trifluoromethyl)naphthalen-2-yl)propan-1-ol]",< 0.5 mg/kg
6,"CC(C)(C)[C@H]1CC[C@H](Oc2ccc3cc([C@@](C)(N)CO)ccc3c2-c2ccc(S(C)(=O)=O)cc2)CC1 [Example 223, (R)-2-amino-2-(6-(trans-4-tert-butylcyclohexyloxy)-5-(4-(methylsulfonyl)phenyl)naphthalen-2-yl)propan-1-ol]",> 5 mg/kg
7,"CC(C)(C)[C@H]1CC[C@H](Oc2ccc3cc([C@@](C)(N)CO)ccc3c2F)CC1 [Example 242, (R)-2-amino-2-(6-(trans-4-tert-butylcyclohexyloxy)-5-fluoronaphthalen-2-yl)propan-1-ol]",< 0.5 mg/kg
8,"C[C@](N)(CO)c1ccc2cc(Oc3cc(F)cc(F)c3)ccc2c1 [Example 186, (R)-2-Amino-2-(6-(3,5-difluorophenoxy)naphthalen-2-yl)propan-1-ol]",0.5 to 5 mg/kg
9,"CCC(F)(F)[C@H]1CC[C@H](Oc2ccc3cc([C@@](C)(N)CO)ccc3c2)CC1 [Example 305, (R)-2-amino-2-(6-(trans-4-(1,1-difluoropropyl)cyclohexyloxy)naphthalen-2-yl)propan-1-ol]",< 0.5 mg/kg
10,"CC(C)[C@H]1CC[C@@H](Oc2ccc3cc([C@@](C)(N)CO)ccc3c2C(F)(F)F)CC1 [Example 167, (R)-2-Amino-2-(6-(cis-4-isopropylcyclohexyloxy)-5-(trifluoromethyl)naphthalen-2-yl)propan-1-ol]",< 0.5 mg/kg
11,"NC(CO)(CO)c1ccc2cc(Oc3cccc(C(F)(F)F)c3)ccc2c1 [Example 191, 2-Amino-2-(6-(3-(trifluoromethyl)phenoxy)naphthalen-2-yl)propane-1,3-diol]",> 5 mg/kg
12,"CC(C)(C)C1CCC(Cc2ccc3cc([C@@](C)(N)CO)ccc3c2)CC1 (stereo partly drawn) [Example 146, (R)-2-amino-2-(6-((4-tert-butylcyclohexyl)methyl)naphthalen-2-yl)propan-1-ol]",0.5 to 5 mg/kg
13,"NC(CO)(CO)c1ccc2cc(Oc3cccc(OCCCC(F)(F)F)c3)ccc2c1 [Example 200, 2-Amino-2-(6-(3-(4,4,4-trifluorobutoxy)phenoxy)naphthalen-2-yl)propane-1,3-diol]",< 0.5 mg/kg
14,"CCCC[C@H]1CC[C@@H](Oc2ccc3cc(C(N)(CO)CO)ccc3c2)CC1 [Example 14, 2-amino-2-(6-(cis-4-butylcyclohexyloxy)naphthalen-2-yl)propane-1,3-diol]",> 5 mg/kg
15,"CC(C)(C)[C@H]1CC[C@H](Oc2ccc3cc([C@@](C)(N)CO)ccc3c2-c2ccc(Cl)cc2)CC1 [Example 233, (R)-2-amino-2-(6-(trans-4-tert-butylcyclohexyloxy)-5-(4-chlorophenyl)naphthalen-2-yl)propan-1-ol]",> 5 mg/kg
16,"NC(CO)(CO)c1ccc2cc(Sc3cccc(OCc4ccccc4)c3)ccc2c1 [Example 192, 2-Amino-2-(6-(3-(benzyloxy)phenylthio)naphthalen-2-yl)propane-1,3-diol]",< 0.5 mg/kg
17,"CC(C)[C@H]1CC[C@H](Oc2ccc3cc([C@@](C)(N)CO)ccc3c2C(F)(F)F)CC1 [Example 168, (R)-2-Amino-2-(6-(trans-4-isopropylcyclohexyloxy)-5-(trifluoromethyl)naphthalen-2-yl)propan-1-ol]",< 0.5 mg/kg
